Measurements: patent US12371439B2, “Crystalline form B of tetrahydrothienopyridine compound, preparation method, composition and application thereof” (Chengdu Shibeikang Biomedical Technology Co. Ltd., priority 2019, dated 2025)

Experiment: Stability investigation of the crystalline forms (HPLC purity, samples placed open and flat)
Assay type: physicochemical
Procedure: The crystalline forms of the compound of formula I obtained from each example and each comparative preparation example were analyzed by HPLC.
Instrument and equipment: Agilent-1100 High Performance Liquid Chromatograph;
Chromatographic conditions and system suitability test: octadecylsilane-bonded silica gel was used as a filler; water (pH adjusted to 3.8 with phosphoric acid):acetonitrile (45:55) was used as a mobile phase; detection wavelength was 220 nm; theoretical tower plate number should not be less than 2000; the resolution should not be less than 2.0; and the resolution from other adjacent impurity peaks should meet the requirements.
Test solution: an appropriate amount of the compound obtained from each example was accurately weighed, dissolved in anhydrous ethanol, and diluted quantitatively to prepare a solution containing about 1 mg compound per 1 ml solution as the test solution.
Reference solution: 1 ml of reference solution of the compound of formula I was accurately measured, and placed into a 100 ml volumetric flask, diluted with anhydrous ethanol to the scale, and shaken well to obtain the reference solution. Reference substance: calibrated standard substance of the compound of formula I provided by Chengdu Shibeikang Biomedical Technology Co., Ltd.
Determination method: according to General Chapter 0512 High Performance Liquid Chromatography in Chinese Pharmacopoeia (2015 Edition) Volume IV, 10 μl of the test solution and 10 μl of the reference solution were accurately measured respectively, and injected into the liquid chromatograph to record chromatograms.
Samples of the crystalline form B from each Example and the crystalline form from each comparative preparation example were placed in an open and flat way to investigate 5-day stability and 10-day stability of the samples under the conditions of light (4500 Lux), heating at 40° C. and 60° C. and high humidity of 75% and 90%, respectively. The detection was carried out according to the determination method in Test 1, and HPLC purity detection results were shown in the table below.

HPLC purity Day 0 (%) (heating at 40° C.) | HPLC purity Day 5 (%) (heating at 40° C.) | HPLC purity Day 10 (%) (heating at 40° C.) | HPLC purity Day 0 (%) (heating at 60° C.) | HPLC purity Day 5 (%) (heating at 60° C.) | HPLC purity Day 10 (%) (heating at 60° C.) | HPLC purity Day 0 (%) (high humidity of 90%) | HPLC purity Day 5 (%) (high humidity of 90%) | HPLC purity Day 10 (%) (high humidity of 90%) | HPLC purity Day 0 (%) (light (4500 Lux)) | HPLC purity Day 5 (%) (light (4500 Lux)) | HPLC purity Day 10 (%) (light (4500 Lux)) | SMILES
99.87 | 99.87 | 99.87 | 99.87 | 99.85 | 99.85 | 99.87 | 99.87 | 99.86 | 99.87 | 99.87 | 99.86 | COC(=O)[C@H](c1ccccc1Cl)N1CC[C@@H]2SC(=O)C=C2C1 [Example 5, methyl (S)-2-(2-chlorophenyl)-2-((S)-2-oxo-2,6,7,7a-tetrahydrothieno[3,2-c]pyridin-5(4H)-yl)acetate]
96.89 | 96.31 | 95.35 | 96.89 | 95.45 | 94.37 | 96.89 | 96.75 | 96.69 | 96.89 | 96.80 | 96.75 | COC(=O)[C@H](c1ccccc1Cl)N1CC[C@@H]2SC(=O)C=C2C1 (racemic) [Comparative preparation example 1, methyl (S)-2-(2-chlorophenyl)-2-((S)-2-oxo-2,6,7,7a-tetrahydrothieno[3,2-c]pyridin-5(4H)-yl)acetate, reference compound]
99.89 | 99.89 | 99.88 | 99.89 | 99.87 | 99.86 | 99.89 | 99.89 | 99.89 | 99.89 | 99.89 | 99.89 | COC(=O)[C@H](c1ccccc1Cl)N1CC[C@@H]2SC(=O)C=C2C1 [Example 4, methyl (S)-2-(2-chlorophenyl)-2-((S)-2-oxo-2,6,7,7a-tetrahydrothieno[3,2-c]pyridin-5(4H)-yl)acetate]
99.91 | 99.91 | 99.90 | 99.91 | 99.89 | 99.88 | 99.91 | 99.91 | 99.90 | 99.91 | 99.91 | 99.90 | COC(=O)[C@H](c1ccccc1Cl)N1CC[C@@H]2SC(=O)C=C2C1 [Example 6, methyl (S)-2-(2-chlorophenyl)-2-((S)-2-oxo-2,6,7,7a-tetrahydrothieno[3,2-c]pyridin-5(4H)-yl)acetate]
99.92 | 99.92 | 99.91 | 99.92 | 99.87 | 99.84 | 99.92 | 99.92 | 99.91 | 99.92 | 99.92 | 99.92 | COC(=O)[C@H](c1ccccc1Cl)N1CC[C@@H]2SC(=O)C=C2C1 [Example 2, methyl (S)-2-(2-chlorophenyl)-2-((S)-2-oxo-2,6,7,7a-tetrahydrothieno[3,2-c]pyridin-5(4H)-yl)acetate]
99.94 | 99.93 | 99.93 | 99.94 | 99.90 | 99.88 | 99.94 | 99.94 | 99.94 | 99.94 | 99.94 | 99.94 | COC(=O)[C@H](c1ccccc1Cl)N1CC[C@@H]2SC(=O)C=C2C1 [Example 3, methyl (S)-2-(2-chlorophenyl)-2-((S)-2-oxo-2,6,7,7a-tetrahydrothieno[3,2-c]pyridin-5(4H)-yl)acetate]
99.88 | 99.88 | 99.88 | 99.88 | 99.85 | 99.84 | 99.88 | 99.88 | 99.87 | 99.88 | 99.88 | 99.87 | COC(=O)[C@H](c1ccccc1Cl)N1CC[C@@H]2SC(=O)C=C2C1 [Example 7, methyl (S)-2-(2-chlorophenyl)-2-((S)-2-oxo-2,6,7,7a-tetrahydrothieno[3,2-c]pyridin-5(4H)-yl)acetate]
96.43 | 96.01 | 94.78 | 96.43 | 95.23 | 93.89 | 96.43 | 96.33 | 96.23 | 96.43 | 96.35 | 96.27 | COC(=O)[C@H](c1ccccc1Cl)N1CC[C@@H]2SC(=O)C=C2C1 (racemic) [Comparative preparation example 2, methyl (S)-2-(2-chlorophenyl)-2-((S)-2-oxo-2,6,7,7a-tetrahydrothieno[3,2-c]pyridin-5(4H)-yl)acetate, reference compound]
99.82 | 99.82 | 99.81 | 99.82 | 99.79 | 99.77 | 99.82 | 99.82 | 99.81 | 99.82 | 99.82 | 99.82 | COC(=O)[C@H](c1ccccc1Cl)N1CC[C@@H]2SC(=O)C=C2C1 [Example 1, methyl (S)-2-(2-chlorophenyl)-2-((S)-2-oxo-2,6,7,7a-tetrahydrothieno[3,2-c]pyridin-5(4H)-yl)acetate]
97.73 | 97.22 | 96.13 | 97.73 | 96.60 | 95.23 | 97.73 | 97.66 | 97.58 | 97.73 | 97.70 | 97.65 | COC(=O)[C@H](c1ccccc1Cl)N1CC[C@@H]2SC(=O)C=C2C1 (racemic) [Comparative preparation example 3, methyl (S)-2-(2-chlorophenyl)-2-((S)-2-oxo-2,6,7,7a-tetrahydrothieno[3,2-c]pyridin-5(4H)-yl)acetate, reference compound]
